Reference: publication PMC9827864, “In Situ Inhibitor Synthesis and Screening by Fluorescence Polarization: An Efficient Approach for Accelerating Drug Discovery” (Angewandte Chemie (International Ed. in English), 2022)
Entries after “also recorded” stand apart in the source; their conditions may differ.

Legend:
[1] = tested on: EPO gene expression in Hep3B cells; assay: RT-qPCR assay of EPO mRNA; type: cell-based, human; conditions: reference gene HPRT
[2] = Acute oral toxicity assay; type: in vivo; conditions: both sexes, mouse, in vivo, 400 mg·kg-1; ICR mice, single oral administration
ICR mice [3] = assay: Acute oral toxicity assay; type: in vivo; conditions: 400 mg kg−1 oral, once
ICR mice [4] = assay: Subacute oral toxicity assay; type: in vivo
Method: 6. Subacute and acute oral toxicity assay
The experimental mice (SPF, ICR, male and female) were obtained from Nantong University (permit number: SCXK (Su) 2019-0001). All animal related experiments were conducted under China Pharmaceutical University guidelines (certification of using the housing facility for laboratory animals: SYXK (Su) 2018-0019) IACUC approved protocols in compliance with the guide for the care and use of laboratory animals (number: 202013705).
6.1 Subacute oral toxicity assay
ICR mice were divided into 8 groups (n = 6), including 15 mg·kg-1, 50 mg·kg-1, 100 mg·kg-1 and vehicle groups for males and females, respectively. […] The body weight of the mice was recorded. […]
Experimental mice were treated with 17 through oral administration once. Body weight and the heart, kidney, liver, spleen, and lung weight were recorded. Blood was collected, and the samples were analyzed by blood biochemistry assays (CRE, AST, ALT, BUN).
A solution of aldehyde B82 (60 μL, 0.5 M, DMSO-d6), 4-methoxyaniline (2 μL, 6.0 M, DMSO -d6), mesitylene (100 μL, 0.1 M, DMSO - d6), and acylhydrazide A3 (100 μL, 0.1 M, DMSO -d6) was added to a mixture of DMSO -d6 (188 μL) and FP buffer D 2O (50 μL), in a 5 mm NMR tube; following incubation at room temperature, the sample was evaluated by a Bruker AV-400 instrument. […]

[5] = tested on: plasma EPO in C57BL/6J mice; assay: In vivo EPO increased assay (plasma EPO ELISA); set-up: species or system mouse; conditions: C57BL/6J mice, 10, 20 and 50 mg kg−1 po, 4 hours
Method: (§1) A structure of PHD2 in complex with Fe and a 2OG competing inhibitor (PDB ID: 4KBZ) was obtained from PDB website. The structure files of protein and compounds for docking were prepared using the Discovery Studio (DS) 2020 software. A water molecule HOH624, conserved in the active binding site of PHD2, was retained during the docking. Residues of PHD2 around the native ligand (radius = 10 Å) were defined as the binding sites for docking. Subsequently, the ligand was removed; the Fe (II) was retained during the docking. Compounds were docked into the binding sites using GOLD 5.1. Docking procedures were performed using the default setting with 100 genetic algorithm (GA) runs of ligands. […]
(§2) 17 was preincubated with microsomes from different species (0.5 mg/mL) at 1 μM for 5 min at 37 °C in 100 mM PBS buffer (pH 7.4). […] The samples were centrifuged at 5000 rpm f or 10 min; the supernatants were then analyzed by HPLC. […]
(§3) Representative compounds and Roxadustat were formulated in normal saline solution. […] Subsequently, these samples were analyzed for reticulocytes in the center for new drug safety evaluation and research of China Pharmaceutical University (ADVIA 2120 hematology system). […]
(§4) Plasma EPO was evaluated using the erythropoietin quantikine ELISA kit for mice (MEP00B). […]
(§5) in normal saline solution. […] Plasma was collected by centrifugation at 3000 rpm, these plasmas were detected by E PO […]

Plasma stability (rat) = type: in vitro ADME; conditions: 100 μM
Method: as §1, §2, §3, §4, §5

O=C(N/N=C/c1cccc(O)c1Cl)c1cnc(-c2cccnn2)[nH]c1=O [compound 17]
EPO mRNA expression by RT-qPCR [1]: increases EPO mRNA in a concentration‐dependent manner with comparable efficiency to Roxadustat
LD50 [2]: > 400 mg/kg
acute oral toxicity findings (body weight, organ/body weight ratio, ALT, AST, BUN, CRE) (ICR mice [3]): no obvious abnormality
H&E staining of major organs (ICR mice [4]; 100 mg kg−1 oral, alternate days for two weeks): normal architecture comparable to the vehicle
subacute oral toxicity findings (behavior, body weight, organ/body weight ratio, BUN, ALT, AST, CRE) (ICR mice [4]; oral, every other day for 14 days, 10 or 15, 50 and 100 mg kg−1): no obvious abnormality; also recorded: did not exhibit any treatment-associated adverse effects
plasma EPO response [5]: dose‐dependent induction of EPO, similarly to Roxadustat
plasma stability (Plasma stability (rat)): stable in rat plasma
